Reference: US20090209426A1, “HERBICIDAL MIXTURE” (priority 2006, published 2009)

Tested on: Digitaria nuda
Test: Test A: greenhouse postemergence herbicidal effect on Digitaria nuda, visual rating 21 DAT
Assay type: in vivo
Experimental: Square plastic pots (10 cm on each side) were filled to the rim with a Redi-earth® (Sun Gro Horticulture, Bellevue, Wash.) planting medium containing 55-65% of Canadian sphagnum peat moss, horticultural grade vermiculite, dolomitic limestone and a wetting agent. The soil was tamped firm to a uniform level of 2.5 cm below the rim of the pot. A measured amount of Digitaria nuda seed was scattered on the soil surface of each pot. Seeded pots were covered with approximately 50 mL of the same planting media, tamped, and set out on a greenhouse bench.
The pots were watered thoroughly at once and then as needed with a dilute balanced N—P—K fertilizer solution to provide 218 ppm nitrogen. Artificial lighting was used to supplement natural light to produce a 14-hour photoperiod. Greenhouse temperatures were targeted for 27° C. during the daytime and 21° C. at night. Once the plants reached their appropriate growth stage, the plants were sorted into test units prior to the herbicide application. Digitaria nuda was 5 to 7 cm in height and at the 3-leaf stage at the time of application.
Test chemicals included diuron in the form of KARMEX® Herbicide, which is a 80 weight (wt.) % wettable granule formulation, a mixture of diuron with hexazinone in the form of DUPONT™ K4™ Herbicide, which a granule formulation containing 468 g of diuron and 132 g of hexazinone per kg of formulation, another mixture of diuron with hexazinone in the form of ADVANCE™ Herbicide, which is a wettable granule formulation containing 533 g of diuron and 67 g of hexazinone per kg of formulation, and mesotrione in the form of the commercial product CALLISTO® Herbicide, which is a 40 weight-volume (wt.-vol.) % suspension concentrate containing 400 g of mesotrione per liter of formulation. The application rates for this test were selected based on the recommended use rate of each compound. Application rates of diuron were 1800 g a.i./ha alone from KARMEX® Herbicide, 936 g a.i./ha from DUPONT™ K4™ Herbicide in combination with 264 g a.i./ha of hexazinone, and 1599 g a.i./ha from ADVANCE™ Herbicide in combination with 201 g a.i./ha of hexazinone. […] Furthermore diuron was tested alone and together with hexazinone in combination with mesotrione at these application rates.
The herbicides were diluted in a measured amount of carrier solution to make stock solutions. The carrier solution was water containing 0.25% v/v of non-ionic adjuvant X-77. The stock solutions were all mixed for 10 minutes before aliquots were taken to make individual treatment solutions. Vials were then brought up to final spray volume of 24 mL. The treatments were sprayed at a pressure of 276 kPa through a T-Jet 8002E (Spraying Systems Co., Wheaton, Ill.) flat fan nozzle onto the surface of the plants in a stationary belt sprayer system calibrated to deliver 280 L/Ha. Treatments were replicated three times.
The sprayed plants were placed in the greenhouse for observation; height and leaf stages were then recorded. Plants were maintained by watering as needed and in the same manner in which they were propagated with respect to nutrition, light, and day length. Visual evaluations were made 21 days after treatment (DAT). A numerical rating system was used to describe the visual response of each treatment on a scale of 0 to 100. Numerical ratings were expressed as the percent effect as compared to the control plants, calculated as the mean of the three replicates. Zero (0%) indicates no visual response, and 100% indicates plant death or a moribund state expected to rapidly end in death.
Colby's equation was used to calculate the expected additive herbicidal effect of the mixtures of mesotrione with diuron, alone and in combination with hexazinone. Colby's equation (S. R. Colby, “Calculating Synergistic and Antagonistic Responses of Herbicide Combinations,” Weeds, 15(1), pp 20-22 (1967)) calculates the expected additive effect of herbicidal mixtures, and for two active ingredients is of the form: […]

Compound | Herbicidal Effect Observed (diuron 1800, hexazinone 0, mesotrione 0 g a.i./ha (KARMEX), mean of 3 replicates) | Herbicidal Effect Observed (mesotrione 5 g a.i./ha alone (CALLISTO)) | Herbicidal Effect Observed (mesotrione 10 g a.i./ha alone) | Herbicidal Effect Observed (mesotrione 20 g a.i./ha alone) | Herbicidal Effect Observed (mesotrione 30 g a.i./ha alone) | Herbicidal Effect Observed (mesotrione 40 g a.i./ha alone) | Herbicidal Effect Observed (mesotrione 60 g a.i./ha alone) | Herbicidal Effect Observed (mesotrione 90 g a.i./ha alone)
CN(C)C(=O)Nc1ccc(Cl)c(Cl)c1 [Diuron, N′-(3,4-dichlorophenyl)-N,N-dimethylurea] | 20% | – | – | – | – | – | – | –
CS(=O)(=O)c1ccc(C(=O)C2C(=O)CCCC2=O)c([N+](=O)[O-])c1 [Mesotrione, 2-[4-(methylsulfonyl)-2-nitrobenzoyl]-1,3-cyclohexanedione] | – | 3% | 17% | 33% | 50% | 53% | 73% | 88%
